{"source": "patent US9511052B2", "about": "“Mineralocorticoid receptor antagonists” (Merck Sharp & Dohme Corp., priority 2012, dated 2016)", "data": [{"molecular_target": "T1, full-length human Mineralocorticoid Receptor (MR) (Homo sapiens, UniProt P08235)", "T1 construct": "host or cells: PathHunter CHO-K1 MR cells", "T1 sequence (P08235 1-984)": "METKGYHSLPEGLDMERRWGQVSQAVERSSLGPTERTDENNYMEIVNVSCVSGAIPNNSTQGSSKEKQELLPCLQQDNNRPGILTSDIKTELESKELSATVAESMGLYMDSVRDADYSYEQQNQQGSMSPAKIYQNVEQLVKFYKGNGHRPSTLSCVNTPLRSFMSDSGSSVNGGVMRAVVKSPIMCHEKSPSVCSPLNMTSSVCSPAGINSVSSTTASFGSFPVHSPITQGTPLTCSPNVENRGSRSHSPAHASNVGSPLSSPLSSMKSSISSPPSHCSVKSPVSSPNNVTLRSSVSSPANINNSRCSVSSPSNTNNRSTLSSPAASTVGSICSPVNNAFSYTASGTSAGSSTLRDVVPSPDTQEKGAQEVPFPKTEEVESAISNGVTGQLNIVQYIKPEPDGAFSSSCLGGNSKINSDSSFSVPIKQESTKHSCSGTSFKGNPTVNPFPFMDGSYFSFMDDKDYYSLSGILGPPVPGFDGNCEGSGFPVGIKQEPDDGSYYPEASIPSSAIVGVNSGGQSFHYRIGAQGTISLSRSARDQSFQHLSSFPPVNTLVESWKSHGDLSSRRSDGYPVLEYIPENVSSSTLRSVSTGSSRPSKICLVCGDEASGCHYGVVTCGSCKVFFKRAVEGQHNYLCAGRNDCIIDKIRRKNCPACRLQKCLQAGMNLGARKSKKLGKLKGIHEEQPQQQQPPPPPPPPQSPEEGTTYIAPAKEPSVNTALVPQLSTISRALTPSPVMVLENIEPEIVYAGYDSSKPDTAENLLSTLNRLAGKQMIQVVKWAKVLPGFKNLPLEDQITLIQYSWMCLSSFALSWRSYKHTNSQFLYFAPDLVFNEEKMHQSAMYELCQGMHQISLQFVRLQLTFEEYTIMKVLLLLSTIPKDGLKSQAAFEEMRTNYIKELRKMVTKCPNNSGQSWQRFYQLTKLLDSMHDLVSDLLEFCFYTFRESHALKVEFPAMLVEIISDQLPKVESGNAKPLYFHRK", "assay": "human MR NH Pro assay (PathHunter Protein:Protein interaction assay), MR antagonism", "type": "cell-based", "conditions": "IP = inflection point of the dose-response curve; CHO-K1 cells overexpressing human MR, aldosterone about 0.3 nM to about 1 nM, 6 hours at 37° C.", "excerpt": "The activity of the compounds of the present invention regarding mineralocorticoid receptor antagonism can be evaluated using the following assay.\nAssessment of MR Potency in HMR NH Pro Assay\nThe human MR NH Pro assay is a commercially available PathHunter™ Protein:Protein interaction assay (DiscoveRx; http://www.discoverx.com/nhrs/prod-nhrs.php) that measures the ability of compounds to antagonize full-length human Mineralocorticoid Receptor (MR) binding to a coactivator peptide.\nStock solution was prepared at 10 μM in DMSO and stored at −20° C. for assay, dilute in assay media to 1.8 or 6 nM (6× of final concentration=about 0.3 nM to about 1.0 nM)\n5. Cell line: PathHunter CHO-K1 MR cells Cat #93-0456C2, Lot No: 09B0913, from operation liquid nitrogen stock.\n6. Control Antagonist: Spironolactone: Sigma #S-3378 and Eplerenone Sigma #107724-20-9 (10 mM stock concentration also prepared in DMSO and stored at −20° C.).\n1. Cells are grown in F12+FBS+Hygromycin+pen/strep+Genetin\n2. Cells are collected with 0.05% trypsin and the cell suspension is spun and resuspended in a volume of F12+1.5% CD-FBS and counted.\n3. The cells concentration was adjusted to 4×10^5 cells/mL.\n4. Cells were (25 μL/well) added to the wells of a 384 well plate.\n5. The plate was then incubated at 37° C. over night in a humidified incubator with 5% CO2.\n6. Test compounds were titrated starting at 4.4 mM, 10-point titration in 1:3 dilution.\nProtocol for 384 well plate format: 6 hr treatment:\n1. 10K exponentially growing cells/well (25 μL) were resuspended in assay media and plated into each well using the Multidrop (Thermo Electron) (use white wall, clear bottom assay plates (Costar #3570) and incubated overnight at 37° C., 5% CO2.\n2. 0.25 μL 120× test compound (final DMSO concentration should be <1%) was added to each well n=2, 10 point titrations starting at 36.7 μM final concentration.\n4. 5 μL of assay media was added to all wells in column 23 and 24.\n5. Cells were then incubated for 6 hrs at 37° C., 5% CO2.\n6. 15 μL 3× DiscoveRx detection reagent was then added to each well.\n7. Plates were incubated for 1 hour at room temperature in the dark.\n8. Plates were read on Envision (PerkinElmer) luminesence plate reader and analyzed using ADA.", "units": {"IC50": "nM"}, "values": [{"smiles": "CCC(O)C(CC)(c1ccc(C(F)(F)F)cc1)n1ncc2c(NS(C)(=O)=O)cc(F)cc21", "note": "(single isomer, unassigned) [Compound 18, N-(6-fluoro-1-(4-hydroxy-3-(4-(trifluoromethyl)phenyl)hexan-3-yl)-1H-indazol-4-yl)methanesulfonamide]", "IC50": 9}, {"smiles": "CCC(c1ccc(C(F)(F)F)cc1)(C(O)C(F)F)n1ncc2c(NS(C)(=O)=O)cccc21", "note": "(single isomer, unassigned) [Compound 48, N-(1-(1,1-difluoro-2-hydroxy-3-(4-(trifluoromethyl)phenyl)pentan-3-yl)-1H-indazol-4-yl)methanesulfonamide]", "IC50": 6}, {"smiles": "CS(=O)(=O)Nc1cccc2c1cnn2C(CC(F)F)(C(N)=O)c1ccc(C(F)(F)F)cc1", "note": "(single isomer, unassigned) [Compound 45, 4,4-difluoro-2-(4-(methylsulfonamido)-1H-indazol-1-yl)-2-(4-(trifluoromethyl)phenyl)butanamide]", "IC50": 274}, {"smiles": "CC(O)C(CC(F)F)(c1ccc(C(F)(F)F)cc1)n1ncc2c(NS(C)(=O)=O)cccc21", "note": "(single isomer, unassigned) [Compound 36, N-(1-(1,1-difluoro-4-hydroxy-3-(4-(trifluoromethyl)phenyl)pentan-3-yl)-1H-indazol-4-yl)methanesulfonamide]", "IC50": 95}, {"smiles": "CCC(O)C(CC(F)F)(c1ccc(C(F)(F)F)cc1)n1ncc2c(NS(=O)(=O)CC)cccc21", "note": "(single isomer, unassigned) [Compound 55, N-(1-(1,1-difluoro-4-hydroxy-3-(4-(trifluoromethyl)phenyl)hexan-3-yl)-1H-indazol-4-yl)ethanesulfonamide]", "IC50": 18}, {"smiles": "CCC(c1ccc(C(F)(F)F)cc1)(C(C)O)n1ncc2c(NS(C)(=O)=O)cc(F)cc21", "note": "(single isomer, unassigned) [Compound 33, N-(6-fluoro-1-(2-hydroxy-3-(4-(trifluoromethyl)phenyl)pentan-3-yl)-1H-indazol-4-yl)methanesulfonamide]", "IC50": 1110}, {"smiles": "CCC(c1ccc(Br)cc1)(C(C)O)n1ncc2c(NS(C)(=O)=O)cccc21", "note": "(single isomer, unassigned) [Compound 1, N-(1-(3-(4-bromophenyl)-2-hydroxypentan-3-yl)-1H-indazol-4-yl) methanesulfonamide]", "IC50": 10}, {"smiles": "CCC(C(N)=O)(c1ccc(C(F)(F)F)cc1)n1ncc2c(NS(C)(=O)=O)cccc21", "note": "(single isomer, unassigned) [Compound 12, 2-(4-(methylsulfonamido)-1H-indazol-1-yl)-2-(4-(trifluoromethyl)phenyl) butanamide]", "IC50": 139}, {"smiles": "CCC(O)C(CC(F)F)(c1ccc(C(F)(F)F)cc1)n1ncc2c(NS(C)(=O)=O)cccc21", "note": "(single isomer, unassigned) [Compound 41, N-(1-(1,1-difluoro-4-hydroxy-3-(4-(trifluoromethyl)phenyl)hexan-3-yl)-1H-indazol-4-yl)methanesulfonamide]", "IC50": 543}, {"smiles": "CCC(c1ccc(C#N)cc1)(C(C)O)n1ncc2c(NS(C)(=O)=O)cccc21", "note": "(single isomer, unassigned) [Compound 13, N-(1-(-3-(4-cyanophenyl)-2-hydroxypentan-3-yl)-1H-indazol-4-yl)methanesulfonamide]", "IC50": 225}, {"smiles": "CCC(O)C(CC)(c1ccc(C#N)cc1)n1ncc2c(NS(C)(=O)=O)cccc21", "note": "(single isomer, unassigned) [Compound 16, N-(1-(3-(4-cyanophenyl)-4-hydroxyhexan-3-yl)-1H-indazol-4-yl)methanesulfonamide]", "IC50": 48}, {"smiles": "CCC(c1ccc(S(F)(F)(F)(F)F)cc1)(C(C)O)n1ncc2c(NS(C)(=O)=O)cccc21", "note": "(single isomer, unassigned) [Compound 23, N-(1-{2-hydroxy-3-[4-(pentafluoro-λ^6-sulfanyl)phenyl]pentan-3-yl}-1H-indazol-4-yl)methanesulfonamide]", "IC50": 4740}]}]}
